Assay results reported in PMC2667321 (Journal of medicinal chemistry, 2009).

Experiments:
[1] = target: metalloprotease LF (lethal factor) (Bacillus anthracis, UniProt P15917); test: biochemical
[2] = Insulin tolerance test in insulin insensitive db/db mice; assay type: in vivo; details: 25 mg/kg i.p. once, 30 minutes prior to insulin injection
Akt1 = Akt1 (Homo sapiens, UniProt P31749); test: Selectivity profile: Akt1; assay type: biochemical
Chain of Akt1 (P31749 whole entry, species assumed): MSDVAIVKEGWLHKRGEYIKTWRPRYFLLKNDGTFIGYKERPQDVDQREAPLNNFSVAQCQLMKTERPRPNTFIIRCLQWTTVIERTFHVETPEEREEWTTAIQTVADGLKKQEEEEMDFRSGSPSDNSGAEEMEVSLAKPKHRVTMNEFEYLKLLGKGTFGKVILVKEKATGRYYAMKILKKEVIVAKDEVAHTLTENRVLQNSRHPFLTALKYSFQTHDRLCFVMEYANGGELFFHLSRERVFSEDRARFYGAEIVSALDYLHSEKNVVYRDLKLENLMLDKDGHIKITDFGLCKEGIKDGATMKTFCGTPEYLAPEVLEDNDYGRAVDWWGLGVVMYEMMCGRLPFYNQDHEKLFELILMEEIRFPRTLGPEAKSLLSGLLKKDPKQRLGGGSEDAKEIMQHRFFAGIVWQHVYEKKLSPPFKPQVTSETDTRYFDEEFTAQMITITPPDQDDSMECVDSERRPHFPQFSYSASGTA

Chain of metalloprotease LF (lethal factor) (P15917 34-809 limits assumed): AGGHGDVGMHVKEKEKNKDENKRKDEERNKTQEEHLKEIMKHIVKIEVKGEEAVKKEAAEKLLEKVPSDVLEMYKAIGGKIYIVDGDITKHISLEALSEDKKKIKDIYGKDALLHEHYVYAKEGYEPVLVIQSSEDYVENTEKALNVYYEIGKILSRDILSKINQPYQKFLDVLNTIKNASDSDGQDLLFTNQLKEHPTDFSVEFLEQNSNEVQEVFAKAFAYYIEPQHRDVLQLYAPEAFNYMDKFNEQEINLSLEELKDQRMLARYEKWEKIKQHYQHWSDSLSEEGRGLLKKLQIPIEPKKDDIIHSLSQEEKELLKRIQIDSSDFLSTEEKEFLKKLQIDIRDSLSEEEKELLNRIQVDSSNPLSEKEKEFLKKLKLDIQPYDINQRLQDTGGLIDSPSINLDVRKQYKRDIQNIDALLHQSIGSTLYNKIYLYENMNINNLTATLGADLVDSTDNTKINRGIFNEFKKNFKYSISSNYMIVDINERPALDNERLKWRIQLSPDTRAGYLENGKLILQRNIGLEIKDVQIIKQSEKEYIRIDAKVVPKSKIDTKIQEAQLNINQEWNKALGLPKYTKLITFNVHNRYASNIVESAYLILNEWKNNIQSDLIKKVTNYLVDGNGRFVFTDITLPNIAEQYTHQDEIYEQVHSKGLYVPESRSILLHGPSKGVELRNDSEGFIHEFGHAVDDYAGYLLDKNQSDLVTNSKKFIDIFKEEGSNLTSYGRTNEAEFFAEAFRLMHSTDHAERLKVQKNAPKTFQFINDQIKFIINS

Row | Structure (SMILES) | IC50 [1] | effect of insulin on blood glucose levels compared to the vehicle control [2] | activity against Akt kinase (Akt1)
1 | O=c1[nH]nc(Sc2ncc([N+](=O)[O-])s2)n1-c1ccc([N+](=O)[O-])cc1 [Compound 3j, 4-(4-nitrophenyl)-5-(5-nitrothiazol-2-ylthio)-4H-1,2,4-triazol-3-ol] | > 100 µM | – | –
2 | Cn1cccc1-c1nnc(Sc2ncc([N+](=O)[O-])s2)n1-c1ccc(Cl)cc1Cl [Compound 7b, 2-(4-(2,4-dichlorophenyl)-5-(1-methyl-1H-pyrrol-2-yl)-4H-1,2,4-triazol-3-ylthio)-5-nitrothiazole] | > 100 µM | – | –
3 | O=[N+]([O-])c1cnc(Sc2nnc(Sc3ncc([N+](=O)[O-])s3)s2)s1 [Compound 8f, 2,5-bis(5-nitrothiazol-2-ylthio)-1,3,4-thiadiazole] | > 100 µM | – | –
4 | Nc1nnc(Sc2ncc([N+](=O)[O-])s2)s1 [Compound 9, 5-(5-nitrothiazol-2-ylthio)-1,3,4-thiadiazol-2-amine] | > 100 µM | statistically significant reduction in blood glucose levels | completely inactive
